Key:
[1] = test system: SARS-CoV-2B.1.1.7 variant; assay type: cell-based; settings: at the highest concentrations; Vero B4 cells, 72 hrs, qRT-PCR
[2] = test system: SARS-CoV-2 B1.351 variant; assay type: cell-based; settings: at the highest concentrations; Vero B4 cells, 72 hrs, qRT-PCR

In the case of Cn1c(=O)c(Oc2ccc(F)cc2F)cc2cnc(NC(CCO)CCO)nc21 [Pamapimod, 6-(2,4-Difluorophenoxy)-2-[3-hydroxy-1-(2-hydroxyethyl)-propylamino]-8-methyl-8H-pyrido[2,3-d]pyrimidin-7-one], the “inhibition of viral shedding, B.1.1.7 variant” value [1] is reported as greater than 90% and the “inhibition of viral shedding, B1.351 variant” value [2] is reported as greater than 90%.
